Patent US20150094310A1, “CRHR1 ANTAGONISTS FOR USE IN THE TREATMENT OF PATIENTS HAVING CRH OVERACTIVITY” (HOLSBOERMASCHMEYER NEUROCHEMIE GMBH, priority 2012, published 2015)

Tests used:
Cor26 CRH mice = assay: REMS levels by EEG/EMG recording in Cor26 CRH mice and control littermates; conditions: for REMS activity / REMS levels: CRH-overexpressing Cor26 CRH mice, 50 mg/kg/d via drinking water
Protocol: (§1) Experiments were conducted with two different mouse lines of excessive central CRH secretion and their respective control littermates (CL). Mice of the CRH-COE^CNS line are characterised by CRH-overexpression within the whole CNS, whereas mice of the Cor26 CRH line display a CRH-overexpression specific to CRH-ergic neurons of the CNS. Three different CRHR1 antagonists were tested. […] In all cases, animals were left to recover from EEG/EMG-electrode implantation for two weeks, after which two days of baseline recording were initiated. Treatment with CRH-R1 antagonist or respective vehicle control commenced thereafter for five consecutive days. Antagonists were applied through the drinking water at a daily dose of 50 mg/kg body weight. EEG and EMG recordings were manually scored as wake, non-REMS (NREMS), and REMS in four second epochs by an experienced evaluator.

[1] = test system: mice overexpressing CRH in the forebrain; conditions: cited from earlier work
CRH-COE^CNS mice = assay: REMS activity by EEG/EMG recording in CRH-COE^CNS mice and control littermates; conditions: for REMS activity: treatment days vs baseline
Protocol: as §1

SMILES | REMS activity / REMS levels (Cor26 CRH mice; 50 mg/kg/day) | REMS activity / REMS levels (Cor26 CRH mice; listed as CP-316311, 50 mg/kg/day) | REMS levels, area under the curve (AUC) within the light period (Cor26 CRH mice; Cor26 CRH mice, baseline vs treatment day three, P=0.006) | REM enhancement [1] | REMS activity in control littermates (CRH-COE^CNS mice; CL (control) mice, 50 mg/kg/d via drinking water) | treatment day of strongest suppression of REMS activity (CRH-COE^CNS mice; CRH-COE^CNS mice, 50 mg/kg/d) | REMS activity (CRH-COE^CNS mice; CRH-COE^CNS mice, 50 mg/kg/d via drinking water, 50 mg/kg/day) | REMS activity (CRH-COE^CNS mice; CRH-COE^CNS mice, 50 mg/kg/d via drinking water, listed as DMP696, 50 mg/kg/day)
CCC(CC)Oc1cc(C)nc(Oc2c(C)cc(C)cc2C)c1C [CP-316,311] | apparently seemed weak | suppressed | significant decrease |  |  |  |  | 
COCC(COC)Nc1nc(C)nc2c(-c3ccc(Cl)cc3Cl)c(C)nn12 [DMP-696] |  |  |  | could reverse the REM enhancement | only a mild suppression of REMS | treatment day three | significant decrease in REMS activity | suppressed
